Source: US8865747B2, “Pioglitazone for use in the treatment of adrenoleukodystrophy” (Fundació Institut D'Investigació Biomèdica de Bellvitge …, priority 2012, dated 2014)
“Also recorded” adds a separate entry of the source. Values belong to the molecule of their own block, whether it stands above or below them.

Assays:
[1] = Yamada T. et al. 2000; cited from earlier work
[2] = system: X-ALD patients; details: recent study in X-ALD patients; cited from earlier work
[3] = system: Abcd1−/Abcd2−/− (DKO) mice; experiment: Horizontal bar cross test; details: after 2 months of treatment, FIG. 19
Method: We set up a preclinical trial to assess the effect of pioglitazone on the progression of clinical signs using DKO null mice as the model Animals were randomly assigned to one of the following groups.
The bar cross test was carried out using a wooden bar of 100 cm in length and 2 cm in width (diameter). This bar is just wide enough for the mice to stand on with their hind feet hanging over the edge such that any slight lateral misstep will result in a slip. […] Bar cross test was performed basically as previously described [Lopez-Erauskin J. et al., Ann.
Mice were evaluated by the treadmill test and the bar-cross at the start and re-scored after 2 (i.e 15 months of age), and 4 months (i.e. 17 months of age) of the treatment.

[4] = system: SIRT1; experiment: SIRT1 immunoprecipitation and carbonyl (DNPH) measurement in spinal cord; assay type: in vivo, mouse; details: Abcd1− mice fed 2 months with pioglitazone, 12 months of age, FIG. 13
Method: (§1) Pioglitazone (Actos®) was mixed into AIN-76A chow from Dyets (Bethlehem, Pa.) at 0.012% w/w, corresponding to a dose of 9 mg/kg/day per mice [Yan Q. et al., J. Neurosci. 2003, 23, 7504-7509]. […] .
Since the specific carbonylated SIRT1 antibody is not available, SIRT1 has been immunoprecipitated to measure carbonyl levels, as earlier described [Caito S. et al., Faseb J. 2010, 24, 3145-3159]. Protein (200 μg) extracted from whole spinal cord in a final volume of 400 μl RIPA buffer was incubated for 1 h with SIRT1 antibody [12193, (Abcam)] ((Abcam, 12193), dilution 1:80). Protein A sepharose (Amersham) was suspended in PBS for 1 h then blocked in BSA (1%) for 1 h. Protein A sepharose (50 μl ) was added to each sample and left overnight at 4° C. on a rotator. The samples are then centrifuged at 13,000 rpm at 4 ° C. for 5 min. […] Neural. 2011, 70, 84-92].

[5] = system: Abcd1-null mice; experiment: ATP levels, NAD-NADH determination and pyruvate kinase activity in spinal cord; assay type: in vivo, mouse; details: Abcd1− mice fed 2 months with pioglitazone, 12 months of age
Method: as §1
To determine ATP levels, mice were sacrificed by cervical dislocation and spinal cords immediately frozen in liquid nitrogen and stored at −80° C. ATP was extracted with cold perchloric acid (10%) from 10 mg of spinal cord, neutralized with KOH and centrifugated [Khan H. A. et al., J. Biosci. 2003, 28, 379-382]. Then, ATP concentrations were quantified in triplicate per animal using the ATPlite 1 step (PerkinElmer) according to the manufacturer's protocol. Data were normalized to mg of proteins. All assays were performed in triplicate.
NAD^+ and NADH were quantified by the NAD cycling assay and pyruvate kinase activity was determined by a spectrophotometrical method as previously described [Galino J. et al., Antiox. Redox Signal 2011, 15, 2095-2107].

[6] = system: Abcd1−/Abcd2−/− (DKO) mice; experiment: Immunohistochemistry / histology of dorsal spinal cord (axonal degeneration); details: pioglitazone 4 months (13 to 17 months of age)
From the text: We set up a preclinical trial to assess the effect of pioglitazone on the progression of clinical signs using DKO null mice as the model Animals were randomly assigned to one of the following groups. […] We treated animals for 4 months starting at 13 months of age in order to start treatment at the onset of clinical signs [Lopez-Erauskin J. et al., Ann.
Spinal cords were harvested from 18 month-old wild type (WT), Abcd1^−/Abcd2^−/− (DKO) and Abcd1^−/Abcd2^−/− fed with pioglitazone for 4 months (DKO+PIO), after perfusion with PFA 4%, basically as described [Lopez-Erauskin J. et al., Ann. […] Spinal cords were embedded in paraffin and serial sections, 5 μm thick, were cut in a transversal or longitudinal plane.
The number of abnormal specific profiles was counted at every 10 sections for each particular stain. At least three sections corresponding to the dorsal columns of the spinal cord were analysed per animal and per stain. Results were expressed as mean values±standard deviations.
Immunohistochemistry experiments were performed.

[7] = system: SIRT1; experiment: SIRT1 fluorometric activity assay on spinal cord protein; assay type: in vivo, mouse; details: Abcd1− mice fed 2 months with pioglitazone, 12 months of age, FIG. 13
Method: as §1
We used a SIRT1 fluorometric assay kit (BIOMOL) based on the generation of a fluorophore via the NADtdependent deacetylation by SIRT1 of its substrate, which is a peptide comprising amino acids 379-382 of human p53 (Arg-His-Lys-Lys(Acetyl) (SEQ ID NO: 7) [Howitz K. T. et al., Nature 2003, 425, 191-196; and Vaziri H. et al., Cell 2001, 107, 149-159]. The assay's fluorescence signal is generated in proportion to the amount of Lys-382 deacetylation [Chabi B. et al., J. Appl. Physiol. 2009, 107, 1730-1735]. Briefly, 25 μg of total protein were incubated with Fluor de Lys-Sirt1 substrate (100 μM) and NAD^+ (100 μM) at 37° C. for 30 min in a final volume of 50 μl. The reaction was stopped by the addition of 50 μl of developer reagent and nicotinamide (2 mM) and the fluorescence was subsequently monitored for 30 min at 360 nm (excitation) and 460 nm (emission).

[8] = system: Abcd1-null mice; experiment: GC/MS measurement of oxidative lesion markers in spinal cord proteins; assay type: in vivo, mouse; details: Abcd1− mice fed 2 months with pioglitazone, FIG. 15a
Method: as §1

[9] = system: Abcd1-null mice; experiment: Western blot of mitochondrial and antioxidant proteins in spinal cord; assay type: in vivo, mouse; details: Abcd1− mice fed 2 months with pioglitazone
From the text: The following antibodies were used for Western Blots: anti-mouse NADH-ubiquinol oxidoreductase (NDUFB8: complex I): dilution 1/2000 (Molecular Probes); anti-mouse anti-Porin 31HL (VDAC or Voltage Dependant Anion Channel): dilution 1/1000 (Calbiochem); anti-rabbit DNP: dilution 1/100 (Invitrogen); anti-mouse PGC-1a: dilution 1/1000 (ST1202, Calbiochem); anti-rabbit SIRT1 for mouse: dilution 1/500 (12193, Abcam); anti-rabbit SIRT1 for human: dilution 1/500 (32441, Abcam) and anti-mouse γ-tubulin: dilution 1/5000 (T6557, clone GTU-88, Sigma). Goat anti-rabbit IgG linked to horseradish peroxidase, dilution: 1/15000 (P0448, Dako, Glostrup, Denmark) and Goat anti-mouse IgG linked to horseradish peroxidase, dilution: 1/15000 (G21040, Invitrogen) have been used as secondary antibodies.
as §1
Tissues were removed from euthanized mice and flash-frozen on liquid nitrogen. Frozen tissues were homogenized in RIPA buffer boiled for 5 min and centrifuged. We measured protein concentration of the supernatant with a BCA (bicinchoninic acid) Protein Assay Kit (Pierce). 10 to 100 μg were loaded onto each lane of 10% polyacrylamide gels for 60 min at […]. Resolved proteins were transferred to nitrocellulose. Proteins were detected with ECL western blotting analysis system (Amersham Biosciences).

[10] = Weight and food intake during dietary treatment; assay type: in vivo, mouse; details: both protocols of treatment (Abcd1-null 2 months; DKO 4 months), 9 mg/kg/day in chow
Method: Pioglitazone (Actos®) was mixed into AIN-76A chow from Dyets (Bethlehem, Pa.) at 0.012% w/w, corresponding to a dose of 9 mg/kg/day per mice [Yan Q. et al., J. Neurosci. 2003, 23, 7504-7509]. […] Neurol. […] Mol. Genet. […] Mol. Genet. […] Mol. Genet. 2005, 14, 3565-3577].

[11] = system: Abcd1-null mice; experiment: Relative gene expression by quantitative RT-PCR in spinal cord; assay type: in vivo, mouse; details: Abcd1− mice fed 2 months with pioglitazone, 12 months of age, FIG. 12
Method: as §1
First tissues were lysed using Trizol reagent (Invitrogen), then total RNA was extracted using RNeasy Kit (Qiagen). Lysis and extraction were performed according to the manufacturer's instructions. Total DNA from tissues was extracted using Gentra Puregene Tissue Kit (Qiagen) according to the manufacturer's instructions.
[…] of RNA was transcribed into cDNA using Superscript II reverse transcription reagents in a final volume of 25 μl (Invitrogen). A TaqMan real time PCR was performed within the ABI PRISM 7300HT sequence detection system using the TaqMan Universal PCR master mix and the standardized primers for mouse SIRT1 (Mm00490758) PGC-1α (Mm00447183), PGC-1β (Mm01258518), ERRα (Mm00433143), NRF-1 (Mm00447996), TFAM (Mm00447485), TFB1M (Mm00524825) and TFB2M (Mm01620397). To measure gene expression and mtDNA abundance 0.1 to 0.2 μl of cDNA and 100 ng of DNA were respectively used.
To quantify mouse and human mtDNA content, two probes (mouse cytochrome b (cytb) (Gene ID: 17711) and human cytochrome c […] subunit II (COXII) (Gene ID: 4513) were respectively designed (Custom TaqMan Gene Expression Assays; Applied Biosystems). The sequences for mouse cytb primers were: […] (SEQ ID NO: 1) (forward) and […] (SEQ ID NO: 2) (reverse) and the FAM-labeled probe was TTGCAACTATAGCAACAG (SEQ ID NO: 3). The sequences for human COXII primers were: […] (SEQ ID NO: 4) (forward) and […] (SEQ ID NO: 5) (reverse) and the FAM-labeled probe was AAATCTGTGGAGCAAACC (SEQ ID NO: 6). Quantification of mtDNA was referred to nuclear DNA as determined by the amplification of the intronless nuclear gene C/EBPα. (Mouse and human CEBPα are respectively: Mm00514283, Hs00269972.). Each sample was run in duplicate, and the mean value of the duplicate was used to calculate the mRNA expression of the genes of interest which were normalized to that of the reference control (18S, Hs99999901) using the comparative (2^−ΔCt) method, according to the manufacturer's instructions.

[12] = spinal cord, 12 months of age, FIG. 11

Structure (SMILES): CC[C@H](C)C(=O)O[C@H]1C[C@@H](C)C=C2C=C[C@H](C)[C@H](CC[C@@H]3C[C@@H](O)CC(=O)O3)[C@H]21 [Lovastatin]
effect in vitro [1]: some effect

Structure (SMILES): CCCC(CCC)C(=O)O [VPA, valproic acid]
adverse effects [2]: adverse effects such as trembling

food intake [10]: no effect
weight [10]: no effect
Structure (SMILES): CCc1ccc(CCOc2ccc(CC3SC(=O)NC3=O)cc2)nc1 (racemic) [pioglitazone, 5-(4-[2-(5-ethylpyridin-2-yl)ethoxy]benzyl)thiazolidine-2,4-dione]
number of slips [3]: full normalisation
time used to cross the bar [3]: full normalisation
levels of carbonylation on SIRT1 protein (SIRT1 oxidation) [4]: lowered; also recorded: normalized
ATP levels ([5]; FIG. 14a): normalised
NADH levels ([5]; FIG. 14b): normalised
activity of pyruvate kinase ([5]; FIG. 14c): normalised
number of reactive astrocytes ([6]; FIG. 16): strikingly reduced to control levels
number of reactive microglia ([6]; FIG. 16): strikingly reduced to control levels
accumulation of markers of axonal damage (APP, synaptophysin in axonal swellings) ([6]; FIG. 16, 17): strikingly reduced to control levels
SIRT1 activity [7]: rescued; also recorded: normalized
AASA content [8]: normalized
CEL (glycoxidative) content [8]: normalized
GSA content [8]: normalized
MDAL (lipoxidative) content [8]: normalized
GPX1 protein level ([9]; FIG. 15b): normalized
NDUFB8 protein level [9, 12]: increased
VDAC protein level [9, 12]: increased
NRF1 mRNA [11]: increased
SIRT1 expression [11]: no effect
TFAM mRNA [11]: increased
expression of PGC-1α mRNA [11]: increased
